In ChEMBL document CHEMBL1201862, “PubChem BioAssay data set” (2004):
Activity calls are given as the source filed them.

Columns and labels:
INS1 [1] = experiment: protection of INS-1E cells from cytokine death, dose response, ATP luminescence, dry powder (AID 488844); assay type: functional, cell-based; conditions: Rattus norvegicus
INS1 [2] = experiment: inhibitors of cytokine-induced nitrite release, dose response, cell-based, Griess absorbance, INS-1E, dry powder (AID 488866); assay type: functional; conditions: Rattus norvegicus
INS1 [3] = experiment: inhibitors of cytokine-induced nitrite release, dose response, cell-based, Griess absorbance, INS-1E, dry powder, set 2 (AID 488868); assay type: functional; conditions: Rattus norvegicus
[4] = inhibitors of cytokine-induced nitrite release, dose response, cell-based, Griess absorbance, INS-1E, dry powder, set 3 (AID 488870); assay type: functional; conditions: Rattus norvegicus
[5] = target: Dual specificity protein kinase CLK4 (Homo sapiens, UniProt Q9HAZ1); assay type: functional
[6] = target: Mitogen-activated protein kinase kinase kinase kinase 4 (Homo sapiens, UniProt O95819); assay type: functional
[7] = target: Serine/threonine-protein kinase pim-1 (Homo sapiens, UniProt P11309); assay type: functional
Chain of Serine/threonine-protein kinase pim-1 (P11309 whole entry): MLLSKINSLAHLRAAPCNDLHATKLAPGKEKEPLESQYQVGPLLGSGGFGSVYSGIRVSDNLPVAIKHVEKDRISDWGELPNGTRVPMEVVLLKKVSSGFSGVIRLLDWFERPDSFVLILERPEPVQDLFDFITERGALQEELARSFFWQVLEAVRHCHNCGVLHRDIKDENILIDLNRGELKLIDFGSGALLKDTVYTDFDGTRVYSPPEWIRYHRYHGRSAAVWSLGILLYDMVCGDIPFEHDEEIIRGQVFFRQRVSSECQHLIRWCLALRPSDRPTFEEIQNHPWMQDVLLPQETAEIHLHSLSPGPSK

[8] = target: MAP kinase-interacting serine/threonine-protein kinase 2 (Homo sapiens, UniProt Q9HBH9); assay type: functional
Chain of MAP kinase-interacting serine/threonine-protein kinase 2 (Q9HBH9 whole entry): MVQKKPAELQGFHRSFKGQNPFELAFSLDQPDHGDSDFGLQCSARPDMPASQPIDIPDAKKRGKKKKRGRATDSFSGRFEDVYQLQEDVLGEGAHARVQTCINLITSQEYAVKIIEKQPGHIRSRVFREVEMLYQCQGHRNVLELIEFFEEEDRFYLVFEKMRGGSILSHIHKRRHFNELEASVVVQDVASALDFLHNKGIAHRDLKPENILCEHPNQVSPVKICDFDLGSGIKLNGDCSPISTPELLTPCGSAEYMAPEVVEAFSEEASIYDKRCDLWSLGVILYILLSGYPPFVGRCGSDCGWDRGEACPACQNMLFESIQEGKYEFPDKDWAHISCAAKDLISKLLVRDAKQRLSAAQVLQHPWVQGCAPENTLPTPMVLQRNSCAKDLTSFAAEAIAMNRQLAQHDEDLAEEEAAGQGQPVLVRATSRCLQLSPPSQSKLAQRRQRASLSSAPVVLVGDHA

[9] = target: Interleukin-1 receptor-associated kinase 4 (Homo sapiens, UniProt Q9NWZ3); assay type: functional
[10] = target: Homeodomain-interacting protein kinase 2 (Homo sapiens, UniProt Q9H2X6); assay type: functional;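 note: measured within a kinome-wide kinase profiling panel, HIPK2 being one panel member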
Chain of Homeodomain-interacting protein kinase 2 (Q9H2X6 whole entry): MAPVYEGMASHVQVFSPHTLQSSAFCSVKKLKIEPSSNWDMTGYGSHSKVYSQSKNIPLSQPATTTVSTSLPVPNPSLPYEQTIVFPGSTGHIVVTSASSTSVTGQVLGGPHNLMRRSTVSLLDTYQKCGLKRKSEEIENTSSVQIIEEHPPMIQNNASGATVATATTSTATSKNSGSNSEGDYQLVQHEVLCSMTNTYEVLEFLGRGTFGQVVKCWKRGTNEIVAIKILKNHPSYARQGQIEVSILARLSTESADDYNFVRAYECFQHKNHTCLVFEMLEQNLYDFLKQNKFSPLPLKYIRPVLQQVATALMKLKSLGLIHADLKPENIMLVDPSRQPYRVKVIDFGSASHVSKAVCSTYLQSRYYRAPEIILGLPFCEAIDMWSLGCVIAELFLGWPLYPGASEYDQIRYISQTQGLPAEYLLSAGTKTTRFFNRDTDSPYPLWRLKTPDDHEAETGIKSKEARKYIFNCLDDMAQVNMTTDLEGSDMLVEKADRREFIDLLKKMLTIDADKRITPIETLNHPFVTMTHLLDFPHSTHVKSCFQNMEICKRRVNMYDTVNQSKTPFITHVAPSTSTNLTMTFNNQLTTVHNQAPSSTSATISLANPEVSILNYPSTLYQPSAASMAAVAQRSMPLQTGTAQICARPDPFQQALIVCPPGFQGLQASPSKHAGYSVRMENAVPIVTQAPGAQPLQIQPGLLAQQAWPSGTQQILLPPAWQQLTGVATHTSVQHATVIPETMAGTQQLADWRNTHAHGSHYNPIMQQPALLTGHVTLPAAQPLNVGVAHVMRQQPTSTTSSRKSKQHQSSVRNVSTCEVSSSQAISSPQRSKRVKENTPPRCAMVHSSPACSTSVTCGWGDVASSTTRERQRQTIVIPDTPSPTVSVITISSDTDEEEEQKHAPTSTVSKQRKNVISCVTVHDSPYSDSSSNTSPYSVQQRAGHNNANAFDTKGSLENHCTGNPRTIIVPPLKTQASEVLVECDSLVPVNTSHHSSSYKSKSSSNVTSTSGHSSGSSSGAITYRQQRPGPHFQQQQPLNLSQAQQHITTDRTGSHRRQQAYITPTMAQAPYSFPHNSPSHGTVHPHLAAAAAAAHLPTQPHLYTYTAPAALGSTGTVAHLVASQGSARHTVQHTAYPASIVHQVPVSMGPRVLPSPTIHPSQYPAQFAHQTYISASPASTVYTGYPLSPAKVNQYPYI

[11] = target: Cell division cycle 7-related protein kinase (Homo sapiens, UniProt O00311); assay type: functional;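 note: value obtained from a kinome-wide kinase panel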
[12] = target: cAMP-dependent protein kinase catalytic subunit alpha (Homo sapiens, UniProt P17612); assay type: functional
[13] = target: Glycogen synthase kinase-3 beta (Homo sapiens, UniProt P49841); assay type: functional;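 note: value comes from a broad kinome profiling panel, with GSK3B as the panel member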
[14] = target: Sphingosine 1-phosphate receptor 5 (Homo sapiens, UniProt Q9H228); experiment: S1P5 receptor agonists, human, late-stage follow-up, counter-screen for S1P4 agonist project, cell-based, fluorescence, set 2 (AID 504867); assay type: functional
Chain of Sphingosine 1-phosphate receptor 5 (Q9H228 whole entry): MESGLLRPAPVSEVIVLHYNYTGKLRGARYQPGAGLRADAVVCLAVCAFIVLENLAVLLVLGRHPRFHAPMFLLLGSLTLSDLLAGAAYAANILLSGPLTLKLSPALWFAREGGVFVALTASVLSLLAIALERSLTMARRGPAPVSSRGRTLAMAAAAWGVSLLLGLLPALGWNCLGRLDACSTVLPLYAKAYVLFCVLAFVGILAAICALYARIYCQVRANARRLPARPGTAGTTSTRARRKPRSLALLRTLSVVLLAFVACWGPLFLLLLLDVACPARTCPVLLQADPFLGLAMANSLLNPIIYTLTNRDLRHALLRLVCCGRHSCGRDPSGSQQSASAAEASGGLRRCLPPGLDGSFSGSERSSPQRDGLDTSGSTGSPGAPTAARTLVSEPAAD

[15] = target: Sphingosine 1-phosphate receptor 1 (Homo sapiens, UniProt P21453); experiment: Late-stage fluorescence-based dose-response cell-based counterscreen assay to identify agonists of the Sphingosine 1-Phosphate Receptor 4 (S1P4): Sphingosine 1-Phosphate Receptor 1 (S1P1) agonist assay Set 2.; assay type: functional
[16] = target: Sphingosine 1-phosphate receptor 3 (Homo sapiens, UniProt Q99500); experiment: Late-stage fluorescence-based dose-response cell-based counterscreen assay to identify agonists of the Sphingosine 1-Phosphate Receptor 4 (S1P4): Sphingosine 1-Phosphate Receptor 3 (S1P3) agonist assay Set 2.; assay type: functional
Chain of Sphingosine 1-phosphate receptor 3 (Q99500 whole entry): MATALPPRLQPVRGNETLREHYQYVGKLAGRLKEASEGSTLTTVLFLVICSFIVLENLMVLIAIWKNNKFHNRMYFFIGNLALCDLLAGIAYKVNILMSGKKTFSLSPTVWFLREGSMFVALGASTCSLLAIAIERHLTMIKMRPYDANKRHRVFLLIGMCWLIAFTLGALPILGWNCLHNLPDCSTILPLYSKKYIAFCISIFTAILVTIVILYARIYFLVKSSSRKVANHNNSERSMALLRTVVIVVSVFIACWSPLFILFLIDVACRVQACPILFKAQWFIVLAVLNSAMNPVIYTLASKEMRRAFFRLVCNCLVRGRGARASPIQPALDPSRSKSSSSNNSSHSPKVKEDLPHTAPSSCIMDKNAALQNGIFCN

[17] = target: T1, Microphthalmia-associated transcription factor (Homo sapiens, UniProt O75030); experiment: TRPM1 promoter luciferase signal decrease, dose response, MITF inhibitor project, cell-based, SK-MEL-5, cherry-picked, set 3 (AID 493073); assay type: functional
T1 sequence (O75030 whole entry): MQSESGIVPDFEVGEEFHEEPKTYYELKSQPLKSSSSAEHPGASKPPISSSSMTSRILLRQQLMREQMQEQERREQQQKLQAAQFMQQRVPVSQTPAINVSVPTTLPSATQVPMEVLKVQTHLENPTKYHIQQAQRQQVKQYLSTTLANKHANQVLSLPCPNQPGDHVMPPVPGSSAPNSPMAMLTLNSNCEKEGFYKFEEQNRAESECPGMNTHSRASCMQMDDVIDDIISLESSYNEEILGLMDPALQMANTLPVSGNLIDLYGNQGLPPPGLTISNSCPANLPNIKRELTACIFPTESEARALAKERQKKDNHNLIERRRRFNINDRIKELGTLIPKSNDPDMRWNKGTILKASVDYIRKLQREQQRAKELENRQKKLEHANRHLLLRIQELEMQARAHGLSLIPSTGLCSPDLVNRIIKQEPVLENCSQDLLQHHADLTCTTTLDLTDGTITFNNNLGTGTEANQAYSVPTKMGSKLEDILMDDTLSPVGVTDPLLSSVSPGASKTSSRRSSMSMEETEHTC

[18] = target: Heat shock protein HSP 90-alpha (Homo sapiens, UniProt P07900); assay type: functional, organism-based
[19] = target: T2, V-type proton ATPase subunit c' (Saccharomyces cerevisiae S288c, UniProt P32842); experiment: Dose Response of Small Molecules that Regulate V-ATPase Proton Transport in Yeast using pHLuorin, Powder Set1.; assay type: functional; conditions: read-out: EC50_MICROM
T2 sequence (P32842 whole entry): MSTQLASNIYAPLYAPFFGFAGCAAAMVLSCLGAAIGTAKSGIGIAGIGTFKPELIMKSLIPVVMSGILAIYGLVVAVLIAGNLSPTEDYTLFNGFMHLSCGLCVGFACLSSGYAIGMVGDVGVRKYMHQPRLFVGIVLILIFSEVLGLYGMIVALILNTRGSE

[20] = target: T2, V-type proton ATPase subunit c'; experiment: Dose Response of Small Molecules that Regulate V-ATPase Proton Transport in Yeast using pHLuorin, Cherry Pick 2.; assay type: functional; conditions: read-out: EC50_MICROM
[21] = target: Inhibitor of nuclear factor kappa-B kinase subunit alpha (Homo sapiens, UniProt O15111); assay type: functional
Misshapen-like kinase 1 = Misshapen-like kinase 1 (Homo sapiens, UniProt Q8N4C8); assay type: functional;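 note: kinome panel screen with MINK as the panel member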
[22] = target: Protein kinase C gamma type (Homo sapiens, UniProt P05129); assay type: functional
[23] = target: Dual specificity tyrosine-phosphorylation-regulated kinase 4 (Homo sapiens, UniProt Q9NR20); assay type: functional
[24] = target: MAP kinase-activated protein kinase 3 (Homo sapiens, UniProt Q16644); assay type: functional;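 note: value comes from a kinome-wide profiling panel in which MAPKAPK3 is one of the panel members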
[25] = target: Mitogen-activated protein kinase 13 (Homo sapiens, UniProt O15264); assay type: functional
[26] = target: Inhibitor of nuclear factor kappa-B kinase subunit beta (Homo sapiens, UniProt O14920); assay type: functional
[27] = target: Serine/threonine-protein kinase Chk2 (Homo sapiens, UniProt O96017); assay type: functional;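 note: CHEK2 entry within a kinome-wide screening panel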
Chain of Serine/threonine-protein kinase Chk2 (O96017 whole entry): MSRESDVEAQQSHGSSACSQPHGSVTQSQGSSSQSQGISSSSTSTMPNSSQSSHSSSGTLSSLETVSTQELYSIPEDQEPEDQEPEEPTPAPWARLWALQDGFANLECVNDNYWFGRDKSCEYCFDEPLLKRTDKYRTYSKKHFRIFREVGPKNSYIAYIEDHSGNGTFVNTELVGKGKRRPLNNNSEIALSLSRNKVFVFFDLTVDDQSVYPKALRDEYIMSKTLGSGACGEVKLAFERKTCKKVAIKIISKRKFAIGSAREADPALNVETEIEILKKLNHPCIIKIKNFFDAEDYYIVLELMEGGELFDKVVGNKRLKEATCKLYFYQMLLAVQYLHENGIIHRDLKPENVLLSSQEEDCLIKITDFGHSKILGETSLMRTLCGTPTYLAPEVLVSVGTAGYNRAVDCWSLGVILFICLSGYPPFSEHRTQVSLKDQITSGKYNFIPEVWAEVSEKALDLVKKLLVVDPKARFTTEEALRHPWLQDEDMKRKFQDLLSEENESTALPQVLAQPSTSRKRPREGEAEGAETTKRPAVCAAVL

[28] = target: Eukaryotic elongation factor 2 kinase (Homo sapiens, UniProt O00418); assay type: functional
[29] = target: Homeodomain-interacting protein kinase 4 (Homo sapiens, UniProt Q8NE63); assay type: functional
[30] = target: Megakaryocyte-associated tyrosine-protein kinase (Homo sapiens, UniProt P42679); assay type: functional;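 note: affinity measured as one member of a kinase panel (Navigating the Kinome) against MATK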
[31] = target: Serine/threonine-protein kinase Nek4 (Homo sapiens, UniProt P51957); assay type: functional
Chain of Serine/threonine-protein kinase Nek4 (P51957 whole entry): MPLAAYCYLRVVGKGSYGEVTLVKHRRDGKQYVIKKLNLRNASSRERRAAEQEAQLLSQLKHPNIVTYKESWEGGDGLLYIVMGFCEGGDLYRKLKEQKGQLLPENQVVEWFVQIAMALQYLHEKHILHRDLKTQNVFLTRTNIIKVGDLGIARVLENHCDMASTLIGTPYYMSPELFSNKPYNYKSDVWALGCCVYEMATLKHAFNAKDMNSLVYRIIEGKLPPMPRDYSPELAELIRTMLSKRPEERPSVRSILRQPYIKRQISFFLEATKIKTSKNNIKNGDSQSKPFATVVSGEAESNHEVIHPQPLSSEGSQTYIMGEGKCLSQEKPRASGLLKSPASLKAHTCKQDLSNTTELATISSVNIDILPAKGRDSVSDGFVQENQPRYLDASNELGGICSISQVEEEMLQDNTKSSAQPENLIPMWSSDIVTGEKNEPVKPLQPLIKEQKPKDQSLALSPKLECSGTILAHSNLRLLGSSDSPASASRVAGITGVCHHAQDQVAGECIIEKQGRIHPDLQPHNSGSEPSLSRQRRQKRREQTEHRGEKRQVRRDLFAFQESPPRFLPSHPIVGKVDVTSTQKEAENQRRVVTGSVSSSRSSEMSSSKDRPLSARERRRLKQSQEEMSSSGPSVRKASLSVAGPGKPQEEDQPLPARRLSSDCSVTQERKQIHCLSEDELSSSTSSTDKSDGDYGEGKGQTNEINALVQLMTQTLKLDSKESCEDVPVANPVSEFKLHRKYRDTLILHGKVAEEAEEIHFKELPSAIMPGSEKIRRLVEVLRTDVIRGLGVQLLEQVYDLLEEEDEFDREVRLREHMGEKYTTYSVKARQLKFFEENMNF

COc1ccc(S(=O)(=O)N(C)C[C@@H]2Oc3c(NC(=O)Nc4cccc5ccccc45)cccc3C(=O)N([C@@H](C)CO)C[C@H]2C)c(OC)c1
inactive: AC50 (INS1 [3]) > 260 µM
active: AC50 (INS1 [1]) 45.5 µM | AC50 (INS1 [2]) 74.1 µM | AC50 [4] 27.7 µM

c1ccc(Cn2cc(-c3ccc4[nH]nc(-c5ccccc5)c4c3)nn2)cc1
active: Ki [5] 0.00398 µM | Ki [6] 0.0398 µM | Ki [7] 0.251 µM | Ki [8] 0.2 µM | Ki [9] 0.631 µM | Ki [10] 0.0316 µM | Ki [11] 0.00794 µM | Ki [12] 3.98 µM | Ki [13] 0.02 µM

CC/N=C1/SC(=Cc2cc(C)n(Cc3ccccc3OC)c2C)C(=O)N1CC
inactive: EC50 [16] 13.7 µM
active: EC50 [14] 0.106 µM | EC50 [15] 0.18 µM

O=C(Nc1ccccc1N1CCOCC1)c1ccc([N+](=O)[O-])o1
active: AC50 [17] 11.9 µM | AC50 [18] 3.63 µM | EC50 [19] 4.18 µM | EC50 [20] 25.3 µM

CCC(CO)Nc1nc(NCc2ccccc2)c2ncn(C(C)C)c2n1 (stereo not drawn) [(RS)-ROSCOVITINE]
inactive: Ki [21] > 3.98 µM | Ki (Misshapen-like kinase 1) > 7.94 µM | Ki [22] > 7.94 µM | Ki [23] > 7.94 µM | Ki [24] > 10 µM | Ki [25] > 7.94 µM | Ki [26] > 3.16 µM | Ki [10] > 3.16 µM | Ki [27] > 5.01 µM | Ki [28] > 3.98 µM | Ki [30] > 2 µM | Ki [31] > 6.31 µM
active: Ki [29] 1.58 µM
